pIC50: −log10 of the molar value. Several values for one entry are separate records, joined by “and”; a condition that tells them apart may be missing. Equal values may be shown once.
What was measured:
Genome polyprotein [1] = target: T1, Genome polyprotein (dengue virus type 2, UniProt P29990); assay type: functional, Thailand/16681/1984
Genome polyprotein [2] = target: T1, Genome polyprotein; assay type: functional, Thailand/16681/1984; remark: listed apart in the source

T1 sequence (P29990 1346-1475 limits assumed): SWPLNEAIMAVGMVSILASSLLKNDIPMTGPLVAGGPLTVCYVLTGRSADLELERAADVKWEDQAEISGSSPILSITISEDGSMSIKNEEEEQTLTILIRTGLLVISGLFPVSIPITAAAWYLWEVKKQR
T1 sequence (P29990 1476-2093 limits assumed): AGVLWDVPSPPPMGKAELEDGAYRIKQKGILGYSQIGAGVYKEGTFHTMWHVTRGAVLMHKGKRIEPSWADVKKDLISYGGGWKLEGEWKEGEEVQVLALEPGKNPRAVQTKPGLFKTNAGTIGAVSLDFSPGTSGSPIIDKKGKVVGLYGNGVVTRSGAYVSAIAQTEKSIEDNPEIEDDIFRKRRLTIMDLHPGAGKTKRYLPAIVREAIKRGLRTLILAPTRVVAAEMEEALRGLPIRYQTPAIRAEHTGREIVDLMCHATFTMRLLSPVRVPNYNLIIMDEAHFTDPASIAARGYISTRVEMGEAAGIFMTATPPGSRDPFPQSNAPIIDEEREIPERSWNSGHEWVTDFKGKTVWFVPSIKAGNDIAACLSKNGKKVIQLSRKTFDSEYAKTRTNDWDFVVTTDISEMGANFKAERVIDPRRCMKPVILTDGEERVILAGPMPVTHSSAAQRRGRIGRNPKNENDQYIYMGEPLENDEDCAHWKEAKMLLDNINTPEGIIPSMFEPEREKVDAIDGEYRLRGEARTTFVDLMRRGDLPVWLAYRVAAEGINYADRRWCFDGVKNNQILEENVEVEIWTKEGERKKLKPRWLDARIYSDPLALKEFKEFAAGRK

Row | Compound | pIC50 (Genome polyprotein [1]) | pIC50 (Genome polyprotein [2]) | IC50 (Genome polyprotein [1])
1 | O=C(Nc1ccc2c(c1)CNC2)c1ccc2[nH]ncc2c1 | < 4.00 | < 4.00 | –
2 | O=C(Nc1ccc2c(c1)CNC2)c1cccc2[nH]c(C(F)(F)F)cc12 | < 4.00 | 4.04 | –
3 | O=C(Nc1ccc2c(c1)CNC2)c1cc(Cl)cc2[nH]c(-c3ccnn3C3CC3)nc12 | < 4.00 | 4.60 | –
4 | CN1Cc2cc(NC(=O)c3cc(Cl)cc4[nH]ncc34)ccc2C1(C)C | < 4.00 | < 4.00 | –
5 | O=C(Nc1ccc2nc[nH]c2c1)c1cc(F)cc2[nH]ncc12 | < 4.00 | < 4.00 | –
6 | CC(C)CCN1Cc2ccc(NC(=O)c3cc(Cl)cc4[nH]ncc34)cc2C1 | < 4.00 | < 4.00 | –
7 | C=CC[C@H]1NCc2cc(NC(=O)c3cccc4c3CC(=O)N4)ccc21 | < 4.00 | < 4.00 | –
8 | COc1ccc2[nH]cnc2c1S(=O)(=O)Nc1ccc2c(c1)CNC2 | < 4.00 | < 4.00 | –
9 | O=C(Nc1ccc2c(c1)CNC2)c1ccc2c(c1)CCC2 | < 4.00 | < 4.00 | –
10 | NCc1ccccc1C(=O)Nc1ccc2c(c1)C(=O)OC2 | < 4.00 | < 4.00 | –
11 | O=C1OCc2ccc(NC(=O)[C@H]3CNC4(CCCC4)C3)cc21 | < 4.00 | < 4.00 | –
12 | O=C(Nc1ccc2c(c1)CNC2)c1cc(F)cc2[nH]cnc12 | < 4.00 | 4.00 | –
13 | O=C(Nc1ccc2c(c1)CNC2)c1nc(C(F)(F)F)cs1 | < 4.00 | < 4.00 | –
14 | O=C(Nc1ccc2c(c1)CNC2)c1cc(Cl)cc2[nH]c(-c3c[nH]c(=O)c(Br)c3)nc12 | 4.86 | 4.90 | –
15 | Cn1cc2c(C(=O)Nc3ccc4c(c3)CNC4)cc(F)cc2n1 | < 4.00 | < 4.00 | –
16 | O=C(Nc1ccc2c(c1)CNC2)c1cc(Br)cc2[nH]c([C@H]3CCCO3)nc12 | < 4.00 | < 4.00 | –
17 | CN1C(=O)Cc2cc(C(=O)Nc3ccc4c(c3)CNC4)ccc21 | < 4.00 | < 4.00 | –
18 | C=CC[C@H]1NCc2cc(NC(=O)c3cc(Cl)cc4[nH]ncc34)ccc21 | < 4.00 | < 4.00 | –
19 | O=C(Nc1ccc2c(c1)CNC2)c1cccc2c1OCCN2 | < 4.00 | < 4.00 | –
20 | CC1(C)C(=O)N[C@H]2CCCN(C(=O)Nc3ccc4c(c3)CNC4)[C@H]21 | < 4.00 | < 4.00 | –
21 | O=C1C[C@H]2[C@H](CCCN2C(=O)Nc2ccc3c(c2)CNC3)N1 | – | < 4.00 | 75.5 µM and 46.1 µM and > 100 µM (2×)
22 | O=C(Nc1ccc2c(c1)S(=O)(=O)NC2)c1cc(Cl)cc2[nH]ncc12 | < 4.00 | < 4.00 | –
23 | O=C(Nc1ccc2c(c1)CNC2)N1CC[C@H](Oc2ccc(C3CC3)cn2)C1 | < 4.00 | < 4.00 | –
24 | CCc1ccc(-c2nc3c(C(=O)Nc4ccc5c(c4)CNC5)cc(Cl)cc3[nH]2)cc1 | 4.37 | 4.67 | –

Row | Compound | pIC50 (Genome polyprotein [1]) | pIC50 (Genome polyprotein [2]) | IC50 (Genome polyprotein [1])
25 | O=C(Nc1ccc2c(c1)CNC2)N1CCC[C@H]1c1nc2ncccc2[nH]1 | < 4.00 | < 4.00 | –
26 | O=C1NS(=O)(=O)c2ccc(NC(=O)c3cc(Cl)cc4[nH]ncc34)cc21 | < 4.00 | < 4.00 | –
27 | CC(C)(C)c1nc2c(C(=O)Nc3ccc4c(c3)CNC4)cc(Br)cc2[nH]1 | < 4.00 | 4.41 | –
28 | O=C(Nc1ccc2c(c1)CNC2)N1CCC[C@@H]1COCc1ccccc1 | < 4.00 | < 4.00 | –
29 | CNC(=O)c1cccc(C(=O)Nc2ccc3c(c2)CNC3)c1 | < 4.00 | < 4.00 | –
30 | C#C[C@H](Nc1ccc2c(c1)CNC2)c1cccc2[nH]c(=O)[nH]c12 | < 4.00 | < 4.00 | –
31 | CCOCC1(c2nc3c(C(=O)Nc4ccc5c(c4)CNC5)cc(Cl)cc3[nH]2)CC1 | < 4.00 | 4.06 | –
32 | O=C(Nc1ccc2c(c1)CNC2)c1cc(Cl)cc2cc[nH]c12 | < 4.00 | < 4.00 | –
33 | C=CC[C@H]1NCc2cc(NC(=O)c3cc(F)cc4[nH]ncc34)ccc21 | 4.41 | 4.14 | –
34 | O=C(Nc1ccc2c(c1)CNC2)c1cccc2[nH]ccc12 | < 4.00 | < 4.00 | –
35 | O=C(Nc1cc([C@H]2CCOC2)ccn1)c1ccc2ncsc2c1 | < 4.00 | < 4.00 | –
36 | O=C1Cc2c(cc(F)cc2C(=O)Nc2ccc3c(c2)CNC3)N1 | 4.52 and 4.59 and 4.68 | 4.48 | –
37 | CC(C)NC(=O)[C@H](Nc1ccc2c(c1)CNC2)c1cc(F)cc2[nH]ncc12 | < 4.00 | < 4.00 | –
38 | O=C(Nc1ccc2[nH]c(=O)[nH]c2c1)c1cc(F)cc2[nH]ncc12 | < 4.00 | < 4.00 | –
39 | O=C(Nc1ccc2c(c1)CNC2)c1cc(Cl)ccc1-n1cnnn1 | < 4.00 | < 4.00 | –
40 | Cn1c(=O)[nH]c2c(C(=O)Nc3ccc4c(c3)CNC4)cc(Br)cc21 | 4.37 and 4.46 | < 4.00 | –
41 | O=C(Nc1ccc2c(c1)CNC2)c1cc(Cl)cc2[nH]c(-c3cc(C4CC4)[nH]n3)nc12 | < 4.00 | 5.14 and 5.29 | –
42 | N#C[C@H](Nc1ccc2c(c1)CNC2)c1cccc2ncccc12 | < 4.00 | < 4.00 | –
43 | O=C(Nc1ccc2c(c1)CNC2)c1cc(F)cc2c1CCC2 | < 4.00 | < 4.00 | –
44 | O=C(Nc1ccc2c(c1)CNC2)c1cc(Cl)cc2[nH]c(CCc3cccnc3)nc12 | < 4.00 | 4.35 | –
45 | NC[C@H]1CC[C@@H](NC(=O)c2cc(Cl)cc3[nH]ncc23)CC1 | < 4.00 | < 4.00 | –
46 | O=C(Nc1ccc2c(c1)CNC2)c1cccc2nc(O)ccc12 | 4.32 and 5.30 | < 4.00 | –
47 | Cc1nc2ccc(C(=O)Nc3ccc4c(c3)CNC4)cc2s1 | < 4.00 | < 4.00 | –
48 | COCc1cc(Cl)cc(C(=O)Nc2ccc3c(c2)CNC3)c1 | < 4.00 | < 4.00 | –

Row | Compound | pIC50 (Genome polyprotein [1]) | pIC50 (Genome polyprotein [2]) | IC50 (Genome polyprotein [1])
49 | CN(C)C(=O)CCCc1nc2c(C(=O)Nc3ccc4c(c3)CNC4)cc(Cl)cc2[nH]1 | < 4.00 | < 4.00 | –
50 | O=C(Nc1ccc2c(c1)CNC2)c1nc(-c2ccccc2)cs1 | < 4.00 | < 4.00 | –
51 | O=C1Cc2ccc(NC(=O)c3cc(F)cc4[nH]ncc34)cc2N1 | < 4.00 | < 4.00 | –
52 | O=C(Nc1ccc2c(c1)CNC2)c1cc(Cl)cc(N2CCCC2=O)c1 | < 4.00 | < 4.00 | –
53 | COc1cc(Cl)cc(C(=O)Nc2ccc3c(c2)CNC3)c1 | < 4.00 | < 4.00 | –
54 | O=C1Cc2cc(C(=O)Nc3ccc4c(c3)CNC4)ccc2N1 | < 4.00 | 5.00 and 5.15 and 5.22 | –
55 | CC(=O)N1Cc2ccc(NC(=O)c3cc(Cl)cc4[nH]ncc34)cc2C1 | < 4.00 | < 4.00 | –
56 | COc1ncc(Cl)cc1C(=O)Nc1ccc2c(c1)CNC2 | < 4.00 | < 4.00 | –
57 | O=C(Nc1nc(O)c2c(n1)CNC2)c1cc(Cl)cc2[nH]ncc12 | < 4.00 | < 4.00 | –
58 | O=C(Nc1ccc2c(c1)CNC2)c1cc(F)cc2[nH]c(-c3ccccc3)nc12 | 5.24 | 5.10 and 5.15 | –
59 | O=C1CCCc2cc(C(=O)Nc3ccc4c(c3)CNC4)ccc2N1 | < 4.00 | < 4.00 | –
60 | O=C(Nc1ccc2c(c1)CNC2)c1cc(Cl)cc2nn(-c3ccccc3)nc12 | 4.89 | 5.13 and 5.09 and 5.18 | –
61 | CCC[C@H](C)N1Cc2ccc(NC(=O)c3cc(Cl)cc4[nH]ncc34)cc2C1 | < 4.00 | < 4.00 | –
62 | O=C(Nc1ccc2c(c1)CNC2)c1cccc2cn[nH]c12 | < 4.00 | < 4.00 and 4.25 | –
63 | O=C(Nc1cc2c(cc1Br)CNC2)c1cc(F)cc2[nH]ncc12 | 4.24 | 4.17 | –
64 | C#Cc1cc(Cl)cc(C(=O)Nc2ccc3c(c2)CNC3)c1 | < 4.00 | < 4.00 | –
65 | O=C1Cc2c(cc(Br)cc2C(=O)Nc2ccc3c(c2)C(=O)OC3)N1 | < 4.00 | < 4.00 | –
66 | O=C(Nc1ccc2c(c1)CNC2)c1cc(Cl)cc2ccccc12 | < 4.00 | < 4.00 | –
67 | O=C1CN(C(=O)Nc2ccc3c(c2)CNC3)[C@H]2CCCC[C@H]2N1 | < 4.00 | < 4.00 | –
68 | O=C(Nc1ccc2c(c1)CNC2)N1CCC[C@H]1Cc1cc2ccccc2o1 | < 4.00 | < 4.00 | –
69 | O=C(Nc1ccc2c(c1)CNC2)c1cc(Cl)cc2[nH]c(-c3cnc(C4CC4)o3)nc12 | 4.71 | 4.23 | –
70 | O=C(Nc1ccc2c(c1)CNC2)c1cc(Cl)cc(N2CCCC2)c1 | < 4.00 | < 4.00 | –
71 | CC(=O)Nc1cccc(C(=O)Nc2ccc3c(c2)CNC3)c1 | < 4.00 | < 4.00 | –

Source: ChEMBL document CHEMBL5604063, “ASAP - DENV-2 NS2B-NS3 protease fluorescence dose response” (2024)
